Values of other authors, collected in publication PMC7461116, “Synthesis, Anticonvulsant and Antinociceptive Activity of New Hybrid Compounds: Derivatives of 3-(3-Methylthiophen-2-yl)-pyrrolidine-2,5-dione” (International Journal of Molecular Sciences, 2020).

Experiments:
Conditions in all cases: cited from earlier work
[1] = tested on: maximal electroshock seizures
[2] = tested on: PTZ-induced clonic seizures; set-up: method as in PMID 25933955
[3] = tested on: latency time to pain reaction; set-up: method as in PMID 25933955
[4] = tested on: motor impairment on rotarod

Cc1ccsc1C(=CCCN1CCC[C@@H](C(=O)O)C1)c1sccc1C [tiagabine]
MES: protection in words [1]: did not show protection
scPTZ: activity in words [2]: active
Hot plate: dose at which analgesic activity was observed [3]: 8 mg/kg
Rotarod: motor impairment in words [4]: significant motor impairment
